Among the data in publication PMC12594101, “Biphasic control of the B cell transcriptome by mTORC1 and GSK3” (Cell reports, 2025) are IC50 values, retold here.

Test [1] addresses GSK3A (Homo sapiens, UniProt P49840). The test can be described thus: in vitro HotSpot kinase assay (Reaction Biology), 10-dose IC50 in triplicate. It is filed as biochemical.
For test [2], the target named is GSK3B (Homo sapiens, UniProt P49841). The description is as above. It is filed as biochemical.

Broadly, the IC50 is the concentration at which inhibition is half-maximal. The low end stands for greater potency, the high end for weaker potency.

The structures appear in SMILES notation.

GSK3B, sequence (P49841 whole entry): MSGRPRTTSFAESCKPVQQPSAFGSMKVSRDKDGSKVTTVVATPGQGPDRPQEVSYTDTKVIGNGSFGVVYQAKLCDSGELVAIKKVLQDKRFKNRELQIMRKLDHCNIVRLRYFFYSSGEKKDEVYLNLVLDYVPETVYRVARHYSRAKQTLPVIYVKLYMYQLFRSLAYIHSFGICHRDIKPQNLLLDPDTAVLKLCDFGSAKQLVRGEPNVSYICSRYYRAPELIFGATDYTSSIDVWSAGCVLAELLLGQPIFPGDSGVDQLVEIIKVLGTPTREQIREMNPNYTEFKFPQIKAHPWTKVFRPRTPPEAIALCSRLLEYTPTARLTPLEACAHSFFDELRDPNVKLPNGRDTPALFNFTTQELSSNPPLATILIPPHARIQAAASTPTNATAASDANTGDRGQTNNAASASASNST
GSK3A, sequence (P49840 2-483): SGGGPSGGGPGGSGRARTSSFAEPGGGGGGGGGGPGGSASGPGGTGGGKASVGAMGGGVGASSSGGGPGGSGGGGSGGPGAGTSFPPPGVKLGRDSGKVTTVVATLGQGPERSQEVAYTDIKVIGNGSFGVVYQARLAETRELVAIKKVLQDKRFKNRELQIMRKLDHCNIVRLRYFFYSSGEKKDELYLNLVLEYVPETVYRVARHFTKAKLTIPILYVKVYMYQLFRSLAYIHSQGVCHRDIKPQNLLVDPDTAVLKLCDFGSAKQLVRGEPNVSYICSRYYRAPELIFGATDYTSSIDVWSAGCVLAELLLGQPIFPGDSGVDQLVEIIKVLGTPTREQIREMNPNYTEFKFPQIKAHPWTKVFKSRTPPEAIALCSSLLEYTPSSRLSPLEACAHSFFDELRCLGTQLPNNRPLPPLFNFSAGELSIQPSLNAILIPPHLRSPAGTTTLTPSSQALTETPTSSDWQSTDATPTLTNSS

Take `CCn1cc(C(=O)O)c(=O)c2c(N)c(F)c(NC3CCCCC3)cc21` [AS1842856]: the IC50 in test [1] and in test [2] was 2.8 nM each time.
